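Where inhibition never reached the appropriate level, the endpoint shown equals the highest concentration tested. Otherwise, values were interpolated linearly from a five-concentration, 48-hour dose response in 96-well plates. At the GI50, growth is halved. TGI marks complete inhibition of growth.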
How the values were obtained:
Test in all cases: NCI tumour cell line growth inhibition, 48 h
BT-549 breast = system: BT-549 breast
OVCAR-3 ovarian = system: OVCAR-3 ovarian
EKVX NSCLC = system: EKVX NSCLC
HOP-92 NSCLC = system: HOP-92 NSCLC
SF-295 CNS = system: SF-295 CNS
SW-620 colon = system: SW-620 colon
CCRF-CEM leukemia = system: CCRF-CEM leukemia
MDA-MB-435 = system: MDA-MB-435
HOP-62 NSCLC = system: HOP-62 NSCLC
HL-60(TB) leukemia = system: HL-60(TB) leukemia
MCF7 breast = system: MCF7 breast
RPMI-8226 leukemia = system: RPMI-8226 leukemia
SK-MEL-28 melanoma = system: SK-MEL-28 melanoma
U251 CNS = system: U251 CNS
ACHN renal = system: ACHN renal
OVCAR-5 ovarian = system: OVCAR-5 ovarian
MDA-N = system: MDA-N
NCI-H226 lung = system: NCI-H226 lung
OVCAR-8 ovarian = system: OVCAR-8 ovarian
SK-OV-3 ovarian = system: SK-OV-3 ovarian
SR leukemia = system: SR leukemia
HCT-15 colon = system: HCT-15 colon
SK-MEL-5 melanoma = system: SK-MEL-5 melanoma
UACC-62 melanoma = system: UACC-62 melanoma
SNB-19 CNS = system: SNB-19 CNS
A498 renal = system: A498 renal
SF-539 CNS = system: SF-539 CNS
HCT-116 colon = system: HCT-116 colon
NCI-H460 lung = system: NCI-H460 lung
DU-145 prostate = system: DU-145 prostate
K-562 leukemia = system: K-562 leukemia
PC-3 prostate = system: PC-3 prostate
A549 NSCLC = system: A549 NSCLC
LOX IMVI melanoma = system: LOX IMVI melanoma
786-0 renal = system: 786-0 renal
CAKI-1 renal = system: CAKI-1 renal
UO-31 renal = system: UO-31 renal
NCI/ADR-RES ovarian = system: NCI/ADR-RES ovarian
SNB-75 CNS = system: SNB-75 CNS
T-47D breast = system: T-47D breast
HCC-2998 colon = system: HCC-2998 colon
UACC-257 melanoma = system: UACC-257 melanoma
SK-MEL-2 melanoma = system: SK-MEL-2 melanoma
SN12C renal = system: SN12C renal
M14 melanoma = system: M14 melanoma
IGROV1 ovarian = system: IGROV1 ovarian
NCI-H23 lung = system: NCI-H23 lung
MOLT-4 leukemia = system: MOLT-4 leukemia
COLO 205 colon = system: COLO 205 colon
KM12 colon = system: KM12 colon
HT29 colon = system: HT29 colon
MALME-3M melanoma = system: MALME-3M melanoma
RXF 393 renal = system: RXF 393 renal
SF-268 CNS = system: SF-268 CNS
TK-10 renal = system: TK-10 renal
HS 578T breast = system: HS 578T breast
NCI-H522 lung = system: NCI-H522 lung
OVCAR-4 ovarian = system: OVCAR-4 ovarian
MDA-MB-231 breast = system: MDA-MB-231 breast

## N#Cc1c(N2CCOCC2)ncn(-c2ccccc2)c1=O
BT-549 breast
  TGI: > 100 µM
OVCAR-3 ovarian
  TGI: > 100 µM
EKVX NSCLC
  TGI: > 100 µM
HOP-92 NSCLC
  TGI: > 100 µM
SF-295 CNS
  TGI: > 100 µM
SW-620 colon
  TGI: > 100 µM
CCRF-CEM leukemia
  TGI: > 100 µM
MDA-MB-435
  TGI: > 100 µM
HOP-62 NSCLC
  TGI: > 100 µM
HL-60(TB) leukemia
  TGI: > 100 µM
MCF7 breast
  TGI: > 100 µM
RPMI-8226 leukemia
  TGI: > 100 µM
SK-MEL-28 melanoma
  TGI: > 100 µM
U251 CNS
  TGI: > 100 µM
ACHN renal
  TGI: > 100 µM
OVCAR-5 ovarian
  TGI: > 100 µM
MDA-N
  TGI: > 100 µM
NCI-H226 lung
  TGI: > 100 µM
OVCAR-8 ovarian
  TGI: > 100 µM
SK-OV-3 ovarian
  TGI: > 100 µM
SR leukemia
  TGI: > 100 µM
HCT-15 colon
  TGI: > 100 µM
SK-MEL-5 melanoma
  TGI: > 100 µM
UACC-62 melanoma
  TGI: > 100 µM
SNB-19 CNS
  TGI: > 100 µM
A498 renal
  TGI: > 100 µM
SF-539 CNS
  TGI: > 100 µM
HCT-116 colon
  TGI: > 100 µM
NCI-H460 lung
  TGI: > 100 µM
DU-145 prostate
  TGI: > 100 µM
K-562 leukemia
  TGI: > 100 µM
PC-3 prostate
  TGI: > 100 µM
A549 NSCLC
  TGI: > 100 µM
LOX IMVI melanoma
  TGI: > 100 µM
786-0 renal
  TGI: > 100 µM
CAKI-1 renal
  TGI: > 100 µM
UO-31 renal
  TGI: > 100 µM
NCI/ADR-RES ovarian
  TGI: > 100 µM
SNB-75 CNS
  TGI: > 100 µM
T-47D breast
  TGI: > 100 µM
HCC-2998 colon
  TGI: > 100 µM
UACC-257 melanoma
  TGI: > 100 µM
SK-MEL-2 melanoma
  TGI: > 100 µM
SN12C renal
  TGI: > 100 µM
M14 melanoma
  TGI: > 100 µM
IGROV1 ovarian
  TGI: > 100 µM
NCI-H23 lung
  TGI: > 100 µM
MOLT-4 leukemia
  TGI: > 100 µM
COLO 205 colon
  TGI: > 100 µM
KM12 colon
  TGI: > 100 µM

## O=[N+]([O-])c1ccc(N(CCO)CCO)c2c1no[n+]2[O-]
BT-549 breast
  GI50: 1.18 µM
  TGI: 4 µM
HT29 colon
  GI50: 1.84 µM
  TGI: 10.7 µM
OVCAR-3 ovarian
  GI50: 1.51 µM
  TGI: 3.91 µM
EKVX NSCLC
  GI50: 1.8 µM
  TGI: 6.66 µM
HOP-92 NSCLC
  GI50: 1.22 µM
  TGI: 5.82 µM
MALME-3M melanoma
  GI50: 1.57 µM
  TGI: 4.64 µM
SF-295 CNS
  GI50: 0.803 µM
  TGI: 3.38 µM
SW-620 colon
  GI50: 1.32 µM
  TGI: 3.71 µM
CCRF-CEM leukemia
  GI50: 0.704 µM
  TGI: 4.71 µM
MDA-MB-435
  GI50: 1.51 µM
  TGI: 4.87 µM
HOP-62 NSCLC
  GI50: 1.39 µM
  TGI: 4.16 µM
RXF 393 renal
  GI50: 1.32 µM
  TGI: 4.84 µM
HL-60(TB) leukemia
  GI50: 0.759 µM
  TGI: 3.57 µM
MCF7 breast
  GI50: 1.21 µM
  TGI: 10.2 µM
SF-268 CNS
  GI50: 1.24 µM
  TGI: 5.02 µM
RPMI-8226 leukemia
  GI50: 1.22 µM
  TGI: 4.08 µM
TK-10 renal
  GI50: 2.2 µM
  TGI: 8.22 µM
HS 578T breast
  GI50: 0.705 µM
  TGI: 4.29 µM
SK-MEL-28 melanoma
  GI50: 1.98 µM
  TGI: 5.66 µM
U251 CNS
  GI50: 0.655 µM
  TGI: 2.37 µM
ACHN renal
  GI50: 0.768 µM
  TGI: 5.12 µM
OVCAR-5 ovarian
  GI50: 2.78 µM
  TGI: 10.3 µM
NCI-H226 lung
  GI50: 2.01 µM
  TGI: 6.59 µM
OVCAR-8 ovarian
  GI50: 1.37 µM
  TGI: 7.02 µM
SK-OV-3 ovarian
  GI50: 1.21 µM
  TGI: 4.14 µM
SR leukemia
  GI50: 0.215 µM
  TGI: 0.899 µM
HCT-15 colon
  GI50: 1.56 µM
  TGI: 7.06 µM
SK-MEL-5 melanoma
  GI50: 1.09 µM
  TGI: 2.31 µM
UACC-62 melanoma
  GI50: 1.24 µM
  TGI: 3.56 µM
SNB-19 CNS
  GI50: 1.76 µM
  TGI: 5.9 µM
A498 renal
  GI50: 1.58 µM
  TGI: 3.68 µM
NCI-H522 lung
  GI50: 0.926 µM
  TGI: 3.38 µM
SF-539 CNS
  GI50: 1.26 µM
  TGI: 2.77 µM
OVCAR-4 ovarian
  GI50: 1.65 µM
  TGI: 6.62 µM
HCT-116 colon
  GI50: 1.1 µM
  TGI: 3.03 µM
NCI-H460 lung
  GI50: 0.645 µM
  TGI: 2.72 µM
DU-145 prostate
  GI50: 1.68 µM
  TGI: 5.64 µM
K-562 leukemia
  GI50: 1.58 µM
  TGI: 4.65 µM
PC-3 prostate
  GI50: 1.57 µM
  TGI: 15.9 µM
A549 NSCLC
  GI50: 1.83 µM
  TGI: 8.92 µM
MDA-MB-231 breast
  GI50: 2.29 µM
  TGI: 14.3 µM
LOX IMVI melanoma
  GI50: 1.03 µM
  TGI: 2.43 µM
786-0 renal
  GI50: 1.8 µM
  TGI: 4.21 µM
CAKI-1 renal
  GI50: 0.471 µM
  TGI: 2.36 µM
UO-31 renal
  GI50: 2.01 µM
  TGI: 8.65 µM
NCI/ADR-RES ovarian
  GI50: 1.44 µM
  TGI: 6.41 µM
SNB-75 CNS
  GI50: 0.961 µM
  TGI: 5.47 µM
T-47D breast
  GI50: 1.36 µM
  TGI: 5.46 µM
HCC-2998 colon
  GI50: 1.26 µM
  TGI: 3.46 µM
UACC-257 melanoma
  GI50: 1.89 µM
  TGI: 6.54 µM
SK-MEL-2 melanoma
  GI50: 1.8 µM
  TGI: 4.78 µM
SN12C renal
  GI50: 1.61 µM
  TGI: 9.28 µM
M14 melanoma
  GI50: 1.22 µM
  TGI: 2.76 µM
IGROV1 ovarian
  GI50: 1.75 µM
  TGI: 7.42 µM
NCI-H23 lung
  GI50: 1.23 µM
  TGI: 4.2 µM
MOLT-4 leukemia
  GI50: 1.27 µM
  TGI: 5.18 µM
COLO 205 colon
  GI50: 0.852 µM
  TGI: 2.22 µM
KM12 colon
  GI50: 1.16 µM
  TGI: 2.53 µM

From PubChem BioAssay (NCI)
